Source: PMC7108782, “Direct interaction of metastasis-inducing S100P protein with tubulin causes enhanced cell migration without changes in cell adhesion” (Biochemical Journal, 2020)
No end group written: not given here.

Columns and labels:
[1] = biological target: T1, Recombinant S100P (UniProt P25815 1-95, 15N-labelled in the NMR experiments); test: SPR; competition: 20 µM peptide mixed with 1 µM S100P, applied to the α,β-tubulin-coated chip; extent of binding relative to S100P alone (100%)
T1 chain: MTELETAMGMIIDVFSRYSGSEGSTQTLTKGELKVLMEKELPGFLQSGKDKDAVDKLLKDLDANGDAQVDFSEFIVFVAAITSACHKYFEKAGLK

[2] = cited from earlier work; for Kd: ref [58], read-out: Kd for Ca2+ in absence of protein target
Description: Cell migration is a complicated biological process involving many disparate cellular machines and regulatory systems. The cytoskeleton is essential for cell migration and is composed of three major types of fibres, intermediate filaments, actomyosin filaments and MTs. The intermediate filaments mainly provide mechanical strength to cells, whilst actomyosin filaments directly provide forces for cell migration. The roles of MTs in cell migration are more complex. On the one hand, MTs are a major support to cell polarity and their assembly can provide force for directional mo ...

[3] = tested on: tubulin; conditions: cited from earlier work; for interaction with tubulin: ref [24]; for effect on MT assembly: ref [25]
Description: The individual S100 proteins have been reported to interact inter alia with either NM or with tubulin, although with different binding affinities. […] Decreasing S100A1 is able to increase tubulin levels and this change alters neurite organisation in […]. […] However, it is ...

[4] = tested on: S100P - α,β-tubulin; test: SPR inhibition of S100P binding to α,β-tubulin-coated chip by peptides; set-up: species or system human; conditions: 20 µM peptide, 1 µM S100P
Experimental: For SPR binding assays, α,β-tubulin proteins described earlier were immobilised on a carboxymethylated dextran surface of a CM5 chip using BS^3 for use in Biocore X100. Recombinant S100P produced as described previously was used as a ligand in different concentrations at 20, 50, 100, 200, 1000, 2000 nM for calculation of the equilibrium dissociation constant (Kd) from the association/dissociation rate constants and from the extent of binding near equilibrium (Supplementary Table S2), as described previously. To detect the effects of tubulin peptides on the interaction of tubulin, different concentrations of tagged and untagged peptides were mixed with 1 µM S100P first and the mixtures were then applied to the tubulin-coated chip. The relative changes in kinetics and binding extents with different peptides were calculated using software provided by the manufacturer.

[5] = tested on: COS-7 S10 cells; test: Boyden chamber cell migration, S100P-inducible COS-7; type: cell-based, monkey
Description: (§1) Cell migration rate (%) = M/G × 100.

[6] = biological target: T2, S100P (Homo sapiens, UniProt P25815); test: Isothermal titration calorimetry (ITC) of tubulin peptides with S100P; type: binding; conditions: for affinity for S100P (in words): NMR and ITC
T2 construct: made in house
T2 sequence (P25815 1-95): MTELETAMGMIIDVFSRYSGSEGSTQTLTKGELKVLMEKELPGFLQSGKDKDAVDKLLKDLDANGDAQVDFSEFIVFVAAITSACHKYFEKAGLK
Experimental: Measurements were conducted using an ITC-200 instrument (Microcal) as previously described. ITC titrations were performed in 20 mM MES pH 6.1, 50 mM NaCl, 1.0 mM TCEP and 5 mM CaCl2 (for Ca^2+-form of S100P) at 25°C. Due to low solubility, peptide solutions at concentrations of 10–400 µM were placed in the cell and titrated with S100P at concentrations of 0.5–3 mM, depending on the peptide concentration. Data were integrated and fitted to a single site binding equation using Origin 7 software which was included with the ITC module (Malvern Microcal, Malvern, U.K.).

[7] = tested on: tubulin polymerisation in COS-7 S10 cells; test: In vivo tubulin polymerisation assay, COS-7 / COS-7 S10; type: cell-based, monkey; conditions: parental COS-7, 1 µg/ml doxycycline
Experimental: (§2) HeLa and S100P-inducible HeLa, COS-7 and S100P-inducible COS-7 cells were routinely cultured with or without doxycycline (1 µg/ml) and treated with 33 µM nocodazole for 24 h to synchronise the cells. Then the nocodazole was washed away (First release) and the synchronised cells were cultured in normal medium for 4 h to allow them to complete cell division. The nocodazole was then added again for 4 h to dissociate all the MTs. After this time, nocodazole was again removed by extensive washings (Second release) and tubulin was allowed to polymerise in the interphase of the cell cycle for different times. The cells were treated with buffer (10 mM Tris–HCl, 150 mM KCl, pH 7.4, 2% (v/v) Triton X-100) and the Triton-X100-insoluble tubulins (representing the newly formed MTs) were solubilised in Sample Buffer and quantified by Western blotting. To test the effect of tubulin-derived peptides, 20 µM T-DIC, T-DLV, T-IMN and tag-peptide alone (Supplementary Table S3) in 0.25% (v/v) DMSO as solvent, as well as the solvent control 0.25% (v/v) DMSO were added immediately after the second release in Sample Buffer and quantified at the different time points by Western blotting.

[8] = tested on: tubulin polymerisation in HeLa-A19 cells; test: In vivo tubulin polymerisation assay, HeLa / HeLa-A19; type: cell-based, human; conditions: parental HeLa, 1 µg/ml doxycycline
Experimental: as §2

[9] = tested on: COS-7 cells; test: Boyden chamber cell migration, COS-7 parental; type: cell-based, monkey; conditions: 5 µM colchicine, 24 h, COS-7
Description: as §1

[10] = tested on: Rama 37-T25 cells; test: S100P-enhanced cell migration, Rama 37-T25; type: cell-based, rat; conditions: Rama 37-T25; 20 nM taxol or 5 µM colchicine, 24 h
Description: as §1

[11] = tested on: HeLa-A3 cells; test: S100P-enhanced cell migration, HeLa-A3; type: cell-based, human; conditions: HeLa-A3; 20 nM taxol or 5 µM colchicine, 24 h
Description: as §1

[12] = tested on: HeLa cells; test: Boyden chamber cell migration with MT regulators, HeLa; conditions: 5 µM colchicine, 24 h
[13] = tested on: MCF-7 cells; test: Boyden chamber cell migration with MT regulators, MCF-7
[14] = tested on: Rama 37 cells; test: Boyden chamber cell migration with MT regulators, Rama 37; conditions: 5 µM colchicine, 24 h
[15] = biological target: αβ-tubulin (UniProt P68363); test: SPR; αβ-tubulin immobilised on a CM5 chip, S100P in solution; 150 mM NaCl, 0.5 mM CaCl2, multiple cycles; Kd from the association and dissociation rate constants
[16] = biological target: αβ-tubulin (UniProt P68363); test: SPR; αβ-tubulin immobilised on a CM5 chip (Biacore X100), S100P in solution; 150 mM NaCl, 0.5 mM CaCl2, single cycle; Kd from the association and dissociation rate constants
[17] = biological target: αβ-tubulin (UniProt P68363); test: SPR; αβ-tubulin immobilised on a CM5 chip, S100P in solution; 300 mM NaCl (printed 300M), 0.5 mM CaCl2, multiple cycles; Kd from the extent of binding at or near equilibrium
[18] = biological target: αβ-tubulin (UniProt P68363); test: SPR; αβ-tubulin immobilised on a CM5 chip, S100P in solution; 300 mM NaCl (printed 300M), 0.5 mM CaCl2, multiple cycles; Kd from the association and dissociation rate constants
[19] = biological target: αβ-tubulin (UniProt P68363); test: SPR; αβ-tubulin immobilised on a CM5 chip, S100P in solution; 500 mM NaCl (printed 500M), 0.5 mM CaCl2, multiple cycles; Kd from the association and dissociation rate constants
[20] = biological target: T1, Recombinant S100P; test: ITC

T-DIC, DIC peptide with the N-terminal 10 amino acid TAT-HA2 tag for cell entry
percent reduction of the extent of binding of 1 µM S100P to α,β-tubulin at 20 µM peptide [1]: 50%

S100A4: S100 protein
change of Ca2+ Kd in complex with NMIIA fragments ([2]; ITC, preformed S100A4/NMIIA fragments, ref [57]): reduced by several orders of magnitude
Kd [2]: > 1000 nM

S100B: S100 protein
interaction with tubulin [3]: can interact with tubulin in a calcium-dependent manner
effect on MT assembly [3]: disrupt the assembly of MT
Kd [2]: > 1000 nM

RRRQRRKKRG [Tag, 10 amino acid TAT-HA2 tag for cell entry, reference compound]
effect on extent of binding of S100P to α,β-tubulin (in words) [4]: showed no effect in the binding assay
S100P-induced fold increase in migration in the presence of peptide ([5]; 20 µM tagged peptide, 8 h, doxycycline-induced COS-7 S10 vs uninduced): 3.5 fold

DIC peptide, the 26mer starting with DIC from β-tubulin
percent inhibition of the extent of binding of 1 µM S100P to α,β-tubulin at 20 µM peptide [1]: > 50%

VNAAIATIKTKRTIQFVDWCPTGFKVGINY [VNA]
Kd ([6]; ITC, 25°C, 20 mM MES pH 6.1, 50 mM NaCl, 1.0 mM TCEP, 5 mM CaCl2, single site fit, peptide in cell, S100P titrated): 62 µM
affinity for S100P (in words) [6]: relatively weak

C[C@H]1c2cccc(O)c2C(=O)C2=C(O)[C@]3(O)C(=O)C(C(N)=O)=C(O)[C@@H](N(C)C)[C@@H]3[C@@H](O)[C@@H]21 [doxycycline, reference compound]
effect of doxycycline on tubulin polymerisation, parental cells [7]: no significant differences
effect of doxycycline on tubulin polymerisation, parental cells [8]: no significant differences

COc1cc2c(c(OC)c1OC)-c1ccc(OC)c(=O)cc1[C@@H](NC(C)=O)CC2 [colchicine]
effect on S100P-enhanced migration ([5]; COS-7 S10, 20 nM taxol or 5 µM colchicine, 24 h): suppressed
effect on S100P's stimulation of migration ([5]; taxol to stabilise MTs or colchicine to dissociate MTs (abstract)): abolished
reduction of migration by colchicine [9]: 30–70%
effect on S100P-enhanced migration [10]: suppressed
effect on S100P-enhanced migration [11]: suppressed
reduction of migration by colchicine [12]: 30–70%
effect of colchicine on migration (in words) ([13]; MCF-7, 5 µM time course, dose response 24 h): increase dramatically cell migration in a time and dose-dependent manner
concentration abolishing the enhancement of migration ([13]; MCF-7, colchicine): > 10 µM
incubation time abolishing the enhancement of migration ([13]; MCF-7, colchicine): > 24 h
concentration range enhancing migration ([13]; MCF-7, colchicine, Figure 6C): 1 to 10 µM
reduction of migration by colchicine [14]: 30–70%

T-DLV, DLV peptide with the N-terminal 10 amino acid TAT-HA2 tag for cell entry
percent reduction of the extent of binding of 1 µM S100P to α,β-tubulin at 20 µM peptide [1]: 50%

IMNTFSVVPSPKVSDTVVEPYNATL-SVH
affinity for S100P (in words) [6]: very weak or nonbinder
effect on extent of binding of S100P to α,β-tubulin (in words) [4]: showed no such effect

B1: S100P (natural protein)
chain: MTELETAMGMIIDVFSRYSGSEGSTQTLTKGELKVLMEKELPGFLQSGKDKDAVDKLLKDLDANGDAQVDFSEFIVFVAAITSACHKYFEKAGLK
Kd [15]: 210 nM
Kd [16]: 120 nM
Kd [17]: 1100 nM
Kd [18]: 890 nM
Kd [19]: 8.3 µM

DLVLDRIRKLADQCTGLQGFLVFHSFGGGT [DLV peptide, the 30mer starting with DLV from α-tubulin]
Kd [20]: < 10 µM
percent inhibition of the extent of binding of 1 µM S100P to α,β-tubulin at 20 µM peptide [1]: > 50%

B2: S100A1: S100 protein (protein, UniProt P23297 1-94, looked up)
Protein S100-A1: MGSELETAMETLINVFHAHSGKEGDKYKLSKKELKELLQTELSGFLDAQKDVDAVDKVMKELDENGDGEVDFQEYVVLVAALTVACNNFFWENS
interaction with tubulin [3]: can interact with tubulin in a calcium-dependent manner
effect on MT assembly [3]: disrupt the assembly of MT

B3: S100A9/A8: S100A9/A8 (MRP14/MRP8) complex (protein, UniProt P06702 1-114; P05109 1-93, looked up)
Protein S100-A9: MTCKMSQLERNIETIINTFHQYSVKLGHPDTLNQGEFKELVRKDLQNFLKKENKNEKVIEHIMEDLDTNADKQLSFEEFIMLMARLTWASHEKMHEGDEGPGHHHKPGLGEGTP
Protein S100-A8: MLTELEKALNSIIDVYHKYSLIKGNFHAVYRDDLKKLLETECPQYIRKKGADVWFKELDINTDGAVNFQEFLILVIKMGVAAHKKSHEESHKE
effect on tubulin polymerisation in vivo ([3]; ref [27]): promotes tubulin polymerisation in vivo
